Each structure is given as a SMILES string.

Chain of phosphorylated active hERK2 enzyme (P28482 whole entry): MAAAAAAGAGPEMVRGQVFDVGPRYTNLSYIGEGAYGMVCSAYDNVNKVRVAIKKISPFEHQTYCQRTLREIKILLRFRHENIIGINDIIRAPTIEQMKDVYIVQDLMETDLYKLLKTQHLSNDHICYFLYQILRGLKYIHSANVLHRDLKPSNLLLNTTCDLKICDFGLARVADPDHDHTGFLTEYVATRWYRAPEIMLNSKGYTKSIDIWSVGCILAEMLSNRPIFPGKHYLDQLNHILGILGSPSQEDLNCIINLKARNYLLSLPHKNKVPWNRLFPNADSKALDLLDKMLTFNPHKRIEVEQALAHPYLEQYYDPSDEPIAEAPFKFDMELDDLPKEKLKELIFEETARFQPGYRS

In this assay the target is phosphorylated active hERK2 enzyme (Homo sapiens (Human), UniProt P28482). Put plainly: Active Human ERK2 (hERK2) Activity Assay (IMAP-FP). The following applies: Table 6, 0.5 nM hERK2, 30 μM ATP, 10 point titration, read-out: AERK2 IC50. It counts as biochemical. Put shortly:
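IMAP fluorescence-polarization kinase assay: 0.5 nM activated hERK2 with 900 nM unlabeled plus 80 nM labeled peptide and 30 μM ATP, reacted 60 min. Quenched with IMAP beads in binding buffer with 24 mM NaCl; FP read after 60 min equilibration.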
Consider `CC(C)(O)[C@@H](NC(=O)Nc1cc2[nH]nc(NC(=O)OC3CCOC3)c2cn1)c1ccc(F)cc1` (stereo partly drawn) [Example 402, tetrahydrofuran-3-yl [6-({[(1S)-1-(4-fluorophenyl)-2-hydroxy-2-methyl-propyl]carbamoyl}amino)-1H-pyrazolo[4,3-c]-pyridin-3-yl]-carbamate], for which the IC50 is 2.9 nM.

Consider `Nc1n[nH]c2cc(NC(=O)N[C@@H](c3ccccc3)[C@H]3CCCO3)ncc12` [Example 153, 1-(3-amino-1H-pyrazolo[4,3-c]pyridin-6-yl)-3-{(S)-phenyl[(2R)-tetrahydrofuran-2-yl]methyl}urea], for which the half-inhibitory concentration (IC50) stood at 0.7 nM.

`CC(C)(O)[C@@H](NC(=O)Nc1cc2[nH]nc(NC(=O)OC3CCOCC3)c2cn1)c1ccc(F)cc1` [Example 400, tetrahydro-2H-pyran-4-yl [6-({[(1S)-1-(4-fluorophenyl)-2-hydroxy-2-methylpropyl]-carbamoyl}amino)-1H-pyrazolo[4,3-c]pyridin-3-yl]-carbamate]: the IC50 came to 1.6 nM.

Turning to `CC1=NOC(CNc2n[nH]c3cc(NC(=O)N[C@H](C)c4ccccc4)ncc23)C1` (stereo partly drawn) [Example 173, 1-(3-{[(3-methyl-4,5-dihydro-isoxazol-5-yl)-methyl]amino}-1H-pyrazolo[4,3-c]-pyridin-6-yl)-3-[(1R)-1-phenylethyl]urea], the half-inhibitory concentration (IC50) turned out to be 5.8 nM.

For `COC[C@H](NC(=O)Nc1cc2[nH]nc(N3CCOCC3)c2cn1)c1ccc(F)cc1` [Example 339, (R)-1-(1-(4-fluorophenyl)-2-methoxyethyl)-3-(3-morpholino-1H-pyrazolo[4,3-c]-pyridin-6-yl)urea], the 50% inhibitory concentration (IC50) amounted to 0.4 nM.

As for `C[C@@H](NC(=O)Nc1cc2[nH]nc(N)c2cn1)c1cccc(F)c1` [Example 270, 1-(3-amino-1H-pyrazolo[4,3-c]pyridin-6-yl)-3-[(1R)-1-(3-fluorophenyl)ethyl]urea], the IC50 came out at 3.2 nM.

Turning to `COCc1nc(NC(=O)N[C@H](C)c2ccccc2)cc2[nH]nc(NC(C)=O)c12` [Example 72, (R)—N-(4-(methoxymethyl)-6-(3-(1-phenylethyl)ureido)-1H-pyrazolo[4,3-c]pyridin-3-yl)acetamide], the IC50 is 106 nM.

Consider `C[C@@H](NC(=O)Nc1cc2[nH]nc(N3CC(CO)C3)c2cn1)c1ccccc1` [Example 83, 1-{3-[3-(hydroxyl-methyl)azetidin-1-yl]-1H-pyrazolo[4,3-c]-pyridin-6-yl}-3-[(1R)-1-phenylethyl]-urea], for which the 50% inhibitory concentration (IC50) turned out to be 2.7 nM.

With `Cc1ccc(Nc2n[nH]c3cc(NC(=O)N[C@H](C)c4ccccc4)ncc23)cn1` [Example 61, 1-{3-[(6-methylpyridin-3-yl)amino]-1H-pyrazolo[4,3-c]pyridin-6-yl}-3-[(1R)-1-phenylethyl]urea], the IC50 worked out at 8.8 nM.

Regarding `COc1cc([C@@H](C)NC(=O)Nc2cc3[nH]nc(NC(=O)N[C@H](C)c4ccc(Cl)c(OC)c4)c3cn2)ccc1Cl` [Example 314, 1,1′-(1H-pyrazolo[4,3-c]pyridine-3,6-diyl)bis(3-((R)-1-(4-chloro-3-methoxyphenyl)ethyl)urea)], the IC50 stood at 732 nM.

Regarding `CC[C@@H](NC(=O)Nc1cc2[nH]nc(NC(=O)OC)c2cn1)c1ccc(Cl)cc1` [Example 301, methyl [6-({[(1R)-1-(4-chlorophenyl)-propyl]carbamoyl}amino)-1H-pyrazolo[4,3-c]-pyridin-3-yl]-carbamate], the IC50 came out at 1.4 nM.

Values taken from patent US9233979B2, “Compounds that are ERK inhibitors” (Merck Sharp & Dohme Corp., priority 2012, dated 2016).
